Read-outs that look alike come from different tables or passages of the source.
Tests used:
Format in all cases: physicochemical
[1] = Sieving of active compound product on an industrial sieving machine (sieveability); conditions: for Time to sieve 65 kg of active compound product: Frewitt Coniwitt TC200, sieve aperture diameter 3 mm; for Sieve throughput of active compound product: industrial scale, Frewitt Oscillowitt MG-800 (2.5 to 4.0 mm) for WO 2013/076168 material, Frewitt Coniwitt TC200 (3 mm) for material of the invention
Experimental: Improved sieveability is measurable for example via improved feeding into the industrial sieving machine as a result of improved flowability of the active compound product and via fewer sieve blockages, for example via the throughput of active compound product per unit time (Example 17).
In the context of the present invention the sieving of the active compound product is carried out for example using a Frewitt Coniwitt TC200 sieving machine (sieve aperture diameter 3 mm) or a Frewitt Oscillowitt MG-800 sieving machine (sieve aperture diameter 2.5 mm to 4.0 mm).
Improved sieveability: The material from the process of the invention is easy to feed into the sieving machine on account of its good flowability. Sieving results in markedly fewer sieve blockages than for material from the process according to route 1. For example on an industrial scale 65 kg of the material from the process of the invention were sievable in <5 min in a Frewitt Coniwitt TC200 sieving machine (sieve aperture diameter 3 mm). This corresponds to >13 kg/min. For comparison sieving material from route 1 via a Frewitt Oscillowitt MG-800 sieving machine (sieve aperture diameter 2.5 mm to 4.0 mm) only achieved throughputs of <10 kg/h. This corresponds to <0.17 kg/min (Example 17). Observed here is a very large difference of a factor of nearly 100 in the sieve throughput of the active compound product of route 1 compared to the active compound product of the invention. This very large difference in sieve throughput results predominantly from the material characteristics of the active compound product and cannot be explained by the different machine types.
Improved sieve throughput. Industrial scale.

[2] = Isolation in an inverting filter centrifuge, industrial scale (isolability)
From the text: In the context of the present invention and as outlined in WO2020/126983, improved isolability of the active compound product, dischargeability of the active compound product after isolation and drying and also conveyability, sieveability and micronizability of the active compound product of the compound of the formula (I) are to be understood as meaning the following, for example: Improved isolability is measurable on an industrial scale for example via a higher area-specific throughput in an inverting filter centrifuge (Example 16). In the context of the present invention the isolation of the active compound product is carried out using for example a filter centrifuge, for example an inverting filter centrifuge. […] This manifests for example in a higher area-specific throughput in the inverting filter centrifuge. On an industrial scale isolation of the material from the process of WO 2013/076168 achieved an average area-specific throughput of 1.6 kg/m^2 h. The average area-specific throughput of the material from the process of the invention was 3.0 kg/m^2 h and thus nearly double the above (Example 16). Higher area-specific throughput in an inverting filter centrifuge. Industrial scale.

[3] = Dischargeability from the inverting filter centrifuge, industrial scale; conditions: listed as material from the process of the invention
From the text: Improved dischargeability from the isolation apparatus: The process according to the process of the present invention prevents the formation of a felt-like filter cake having high tear strength. Both after isolation in the pressure filter and after isolation in the filter centrifugation the filter cake is soft and moldable. This prevents blockage of the discharge path. For example on an industrial scale a blockage of the discharge path from the inverting filter centrifuge after isolation of the material from the process of WO 2013/076168 was avoidable only by reducing the filter cake thickness to 8 mm to 9 mm. By contrast in the isolation of the material from the process of the invention an average filter cake height of 25 mm was realized without any blocking of the discharge path being observed.

[4] = listed as material from the process of the invention

SMILES | Time to sieve 65 kg of active compound product [1] | Time to sieve 65 kg of active compound product [1, 4] | Sieve throughput of active compound product [1] | Sieve throughput of active compound product [1, 4] | Average area-specific throughput [2] | Average area-specific throughput [2, 4] | Filter cake thickness at which the discharge path does not become blocked [3] | Sieve throughput ([1]; Frewitt Oscillowitt MG-800, sieve aperture diameter 2.5 mm to 4.0 mm) | Amount of active compound product sieved in 1 h ([1]; Frewitt Oscillowitt MG-800, sieve aperture diameter 2.5 to 4.0 mm, in 1 h) | Sieve throughput of active compound product ([1]; listed as material from route 1) | Average area-specific throughput ([2]; listed as material from the process of WO 2013/076168)
COC(=O)Nc1c(N)nc(-c2nn(Cc3ccccc3F)c3ncc(F)cc23)nc1N [Process of the invention, methyl {4,6-diamino-2-[5-fluoro-1-(2-fluorobenzyl)-1H-pyrazolo[3,4-b]pyridin-3-yl]pyrimidin-5-yl}carbamate] | product in <5 min | < 5 min | i.e. >13 kg/min | > 13 kg/min | 3.0 kg/m^2h | 3.0 kg/m^2h | 25 mm | – | – | – | –
COC(=O)Nc1c(N)nc(-c2nn(Cc3ccccc3F)c3ncc(F)cc23)nc1N [Process of WO 2013/076168, methyl {4,6-diamino-2-[5-fluoro-1-(2-fluorobenzyl)-1H-pyrazolo[3,4-b]pyridin-3-yl]pyrimidin-5-yl}carbamate, reference compound] | – | – | i.e. <0.17 kg/min | – | 1.6 kg/m^2h | – | – | < 10 kg/h | <10 kg of active compound | < 0.17 kg/min | 1.6 kg/m^2h
